Where two headings read alike, the source gives them in different places. Marks after values point to notes of the source that are not given here.
How the values were obtained:
M. tuberculosis H37Rv [1] = assay: MIC / dose response by modified microplate Alamar Blue assay (MABA); assay type: cell-based, Mycobacterium tuberculosis; details: for drug concentration response curve (kill curve) type: FIG. 3
[2] = system: non-replicating M. tuberculosis H37Rv; assay: Low oxygen study, non-replicating bacilli; assay type: cell-based, Mycobacterium tuberculosis; details: for Log10 (CFU+/−SD): 96 h post-treatment; for % Growth Reduction: benzimidazoles at 4 μg/mL; for Log10 (CFU) Reduction: vs control
Method: The low oxygen studies were performed similar to those described previously (Lenaerts et al., Antimicrob. Agents Chemother. 2005; 49:2294-2301). Briefly, M. tuberculosis H37Rv were diluted to an O.D. 600 nm of 0.003 in 7H9 media containing Methylene Blue (1.5 μg/mL) and were grown in 16×125 mm Hungate tubes with rubber septa (VWR cat#89167-170). The tubes, with 11 mL of the diluted cultures were incubated at 37° C. under agitation (150 rpm). […] One week after the reduction of methylene blue, approximately 28 days from the start, drug treatment was initiated with the test and control drugs. Prior to treatment, an aliquot was removed and plated for a CFU count to serve as a control. Isoniazid and metronidazole were used in the studies as comparative controls.
Recovery of aliquots for plating and the addition of drugs were conducted through septa using syringes to maintain the low-oxygen conditions. Ninety-six hours post-treatment, 1 mL of the culture was removed from the oxygen depleted cultures, the aliquot was serial diluted and the dilutions were plated. Log10 CFUs were calculated for the different treatments and concentrations. Percentage growth reduction from the controls was calculated and reported.

M. tuberculosis H37Rv [3] = assay: Acute infection model in immune incompetent GKO mice; assay type: in vivo, mouse; details: compound 150 mg/kg IP q.d. 9 days, isoniazid 25 mg/kg q.d.
Method: (§1) Compound efficacy was assessed in two murine models of infection based on the short term model described previously (Lenaerts et al., Antimicrob. Agents Chemother. 2003; 47:783-785). All aerosol infections were performed using a Middlebrook aerosol generation devise (Glas-Col, Terre Haute, Ind.).
(§2) In the first infection model, immune incompetent C57BL/6-Ifngtm1 ts gamma interferon gene disruption (GKO) mice were infected with M. tuberculosis H37Rv. Animals were dosed q.d. IP beginning at day 12 post-infection with 150 mg/kg of compound in 38% ethanol and 10% Solutol (e.g., Solutol HS 15) for 9 consecutive days. In the second animal model, immune competent C57BL/6 mice were infected with M. tuberculosis Erdman (TMCC 107). Animals were dosed b.i.d. IP with 100 mg/kg compound in 25% ethanol and 25% Solutol beginning at day 5 post-in feet ion for 10 consecutive days. Isoniazid was used as a comparative positive control and was delivered q.d. at 25 mg/kg as a positive control.
(§3) In both studies, animals were sacrificed and necropsied, bacterial burden in lungs or spleens were quantified on 7H11 agar containing carbenicillin (Sigma, C1389) and cycloheximide (Sigma, C7698) and upon incubation for three weeks bacterial colony forming units were enumerated. Outliers were identified by the Grubbs' Test and a one-way t-test at a 95% confidence interval was used to compare treatment groups and controls, to calculate p-values, and to produce bar graphs and scatter plots GraphPad Prism Version 5.0d for Mac OS X (GraphPad Software, San Diego Calif., USA www.graphpad.com).

M. tuberculosis Erdman [4] = assay: Dissemination model in immune competent C57BL/6 mice; assay type: in vivo, mouse; details: isoniazid 25 mg/kg q.d.; for reduction of bacterial load in the spleen: compound 100 mg/kg IP b.i.d. 10 days
Method: as §1, §2, §3

M. tuberculosis Erdman [5] = assay type: in vivo; details: 50 mg/kg b.i.d. (Inh q.d.); for Log10CFU Lungs / Log10CFU Spleen: day 15
[6] = system: Mycobacteria tuberculosis; assay: MIC and drug response curve type (Tables A and B); assay type: cell-based, Mycobacterium tuberculosis; details: Table A
Method: A drug concentration response curve can be generated by graphing the log10 drug concentrations (μg/mL) against the difference in growth between the drug-treated wells and control wells. See FIG. 3C, and FIG. 5 (entries for SB-P23D8 and SB-P26D9). A NREBA is indicative of bacteriostatic activity above the MIC.
(§4) Further analysis using the methods described herein was performed on the compounds found in Tables A and B (bold font compounds are shown in FIG. 11) resulting in the data found therein.
MIC values were determined for the benzimidazoles using a modified 96-well microplate Alamar Blue (resazurin) assay (MABA) (see Kumar et al., J. Med. Chem. 2011; 54:374-381; Collins and Franzblau, Antimicrob. Agents Chemother. 1997; 41:1004-1009). Dose response curves were generated from the MABA assay for compounds by graphing the log10 drug concentrations against the difference in growth between the drug-treated wells and control wells using GraphPad Prism Version 5.0d for Mac OS X (GraphPad Software, San Diego Calif., USA, www.graphpad.com). For time dose studies, bacterial growth in the presence of compound was monitored by the O.D. 600 nm. […] The values were plotted against time using GraphPad Prism Version 5.0d for Mac OS X (GraphPad Software, San Diego Calif., USA, www.graphpad.com).

M. tuberculosis = assay: Benzimidazoles activity tested in animals (animal models of infection, Table A); assay type: in vivo, mouse; details: Table A
Method: as §4, §1

M. tuberculosis H37Rv [7] = assay: Growth inhibition / time dose curves (OD600 and CFU); assay type: cell-based, Mycobacterium tuberculosis; details: O.D. 600 nm growth curves, 5 days

Structure (SMILES): NNC(=O)c1ccncc1 [Isoniazid, reference compound]
- drug concentration response curve (kill curve) type (M. tuberculosis H37Rv [1]): sigmoidal kill curve
- Log10 (CFU+/−SD) [2]: 5.15 ± 0.2
- % Growth Reduction [2]: 36%
- Log10 (CFU) Reduction [2]: 0.2
- reduction of bacterial load in spleen (M. tuberculosis H37Rv [3]): below the level of detection
- reduction of bacterial load in the lungs (M. tuberculosis H37Rv [3]): 1.8 log10 CFU
- reduction of bacterial load in the spleen (M. tuberculosis Erdman [4]): below detectable levels
- reduction of bacterial load in the lung (M. tuberculosis Erdman [4]): below detectable levels
- Δ Lungs (difference between means of Test and Control Groups) (M. tuberculosis Erdman [5]; IP): −6.57*** Log10 CFU
- Δ Spleen (difference between means of Test and Control Groups) (M. tuberculosis Erdman [5]; IP): −4.96*** Log10 CFU
- Log10CFU Lungs (M. tuberculosis Erdman [5]; IP): 0.12 ± 0.16 Log10 CFU
- Log10CFU Spleen (M. tuberculosis Erdman [5]; IP): 0 ± 0 Log10 CFU
- Δ Lungs (difference between means of Test and Control Groups) (M. tuberculosis Erdman [5]; PO): −6.31*** Log10 CFU
- Δ Spleen (difference between means of Test and Control Groups) (M. tuberculosis Erdman [5]; PO): −3.89*** Log10 CFU
- Log10CFU Lungs (M. tuberculosis Erdman [5]; PO): 0 ± 0 Log10 CFU
- Log10CFU Spleen (M. tuberculosis Erdman [5]; PO): 0 ± 0 Log10 CFU

Structure (SMILES): CCCCOC(=O)Nc1cc2nc(C3CCCCC3)[nH]c2cc1N(CC)CC [SB-P3G2]
- drug concentration response curve (kill curve) type (M. tuberculosis H37Rv [1]): sigmoidal kill curves
- MIC range (M. tuberculosis H37Rv [1]; H37Rv and Erdman strains): 0.78 to 1.5 µg/mL
- Curve ([6]; drug response curve type): Sigmoid
- MIC ([6]; in µg/mL): 1.25
- Efficacy Lung (M. tuberculosis): Yes
- Efficacy Spleen (M. tuberculosis): Yes
- concentrations at which bacterial growth was inhibited (M. tuberculosis H37Rv [7]): greater than 0.62 μg/mL
- Log10 (CFU+/−SD) [2]: 4.80 ± 0.21
- % Growth Reduction [2]: 72%
- Log10 (CFU) Reduction [2]: 0.48
- reduction of bacterial load in spleen (M. tuberculosis H37Rv [3]): 0.41±0.36 log10 CFU
- reduction of bacterial load in the lungs (M. tuberculosis H37Rv [3]): 0.71±0.17 log10 CFU
- reduction of bacterial load in the spleen (M. tuberculosis Erdman [4]): 1.6±0.49 log10

Reference: US10287617B2, “Methods for in vitro—in vivo efficacy determination” (COLORADO STATE UNIVERSITY RESEARCH FOUNDATION, priority 2014, dated 2019)
